Experimental findings from patent US12295936B2, “Immunomodulating urea azalides” (Zoetis Services LLC, priority 2020, dated 2025) are described below.

For one assay, the system named is TNF-α. Put plainly: LPS-stimulated whole bovine blood assay, MSD cytokine detection. The following applies: Bos taurus, LPS-stimulated bovine whole blood; read-out: TNF-α (IC50 μM). It counts as cell-based.
A further assay deals with IL-1β. The assay is described as above. It is filed as cell-based. As to conditions: overstimulation of IL-1β, LPS-stimulated bovine whole blood.
The test system of assay [1] is BRD pathogens, M. haemolytica and P. multocida. As to the kind of experiment: MIC screening panel of BRD pathogens (antibacterial / non-antibacterial). As to conditions: read-out: antibacterial / non-antibacterial (MIC for the BRD pathogens).
A further assay has as its system IL-6. As to the kind of experiment: LPS-stimulated whole bovine blood assay, MSD cytokine detection. The following applies: Bos taurus, LPS-stimulated bovine whole blood; read-out: IL-6 (IC50 μM). It counts as cell-based. The source says: In order to correlate RNA sequencing data to cytokine changes the whole blood assay was utilized. […] The enhancement result represents an overall stimulation of cytokine levels due to cellular stress or potential toxicity with increasing concentrations of the compound, representing a typical bell shape response curve for immunomodulatory activity.

In general, IC50 refers to the midpoint of a concentration-inhibition curve. For the compound `CCCCNC[C@]1(O)[C@H](C)O[C@@H](O[C@H]2[C@H](C)[C@@H](O[C@@H]3O[C@H](C)C[C@H](N(C)C(=O)N(C)c4ccccc4)[C@H]3O)[C@](C)(O)C[C@@H](C)CN[C@H](C)[C@@H](O)[C@](C)(O)[C@@H](CC)OC(=O)[C@@H]2C)C[C@@]1(C)OC` [Example H-28, 1-((2S,3R,4S,6R)-2-(((2R,3S,4R,5R,8R,10R,11R,12S,13S,14R)-13-(((2R,4R,5S,6S)-5-((butylamino)methyl)-5-hydroxy-4-methoxy-4,6-dimethyltetrahydro-2H-pyran-2-yl)oxy)-2-ethyl-3,4,10-trihydroxy-3,5,8,10,12,14-hexamethyl-15-oxo-1-oxa-6-azacyclopentadecan-11-yl)oxy)-3-hydroxy-6-methyltetrahydro-2H-pyran-4-yl)-1,3-dimethyl-3-phenylurea], the figures for the IC50 with TNF-α and in the assay on IL-6 were 13 µM and 8 µM, respectively. The “IL-1β OS of LPS” value with IL-1β was 17 µM. Besides, the MIC in assay [1] is above 64 µg/mL.
As for `CC[C@H]1OC(=O)[C@H](C)[C@@H](O[C@H]2C[C@@](C)(OC)[C@](O)(CNCCC(C)C)[C@H](C)O2)[C@H](C)[C@@H](O[C@@H]2O[C@H](C)C[C@H](N(C)C(=O)N(C)c3ccccc3)[C@H]2O)[C@](C)(O)C[C@@H](C)CN[C@H](C)[C@@H](O)[C@]1(C)O` [Example H-29, 1-((2S,3R,4S,6R)-2-(((2R,3S,4R,5R,8R,10R,11R,12S,13S,14R)-2-ethyl-3,4,10-trihydroxy-13-(((2R,4R,5S,6S)-5-hydroxy-5-((isopentylamino)methyl)-4-methoxy-4,6-dimethyltetrahydro-2H-pyran-2-yl)oxy)-3,5,8,10,12,14-hexamethyl-15-oxo-1-oxa-6-azacyclopentadecan-11-yl)oxy)-3-hydroxy-6-methyltetrahydro-2H-pyran-4-yl)-1,3-dimethyl-3-phenylurea], the IC50 in the assay on TNF-α and in the assay on IL-6 was 50 µM in each case. In addition, the “IL-1β OS of LPS” value with IL-1β is 3 µM. Further, the MIC in assay [1] is above 64 µg/mL.
In the case of `CC[C@H]1OC(=O)[C@H](C)[C@@H](O[C@H]2C[C@@](C)(OC)[C@](O)(CNCC3CCN(C(C)=O)CC3)[C@H](C)O2)[C@H](C)[C@@H](O[C@@H]2O[C@H](C)C[C@H](N(C)C(=O)N(C)c3ccccc3)[C@H]2O)[C@](C)(O)C[C@@H](C)CN[C@H](C)[C@@H](O)[C@]1(C)O` [Example H-31, 1-((2S,3R,4S,6R)-2-(((2R,3S,4R,5R,8R,10R,11R,12S,13S,14R)-13-(((2R,4R,5S,6S)-5-((((1-acetylpiperidin-4-yl)methyl)amino)methyl)-5-hydroxy-4-methoxy-4,6-dimethyltetrahydro-2H-pyran-2-yl)oxy)-2-ethyl-3,4,10-trihydroxy-3,5,8,10,12,14-hexamethyl-15-oxo-1-oxa-6-azacyclopentadecan-11-yl)oxy)-3-hydroxy-6-methyltetrahydro-2H-pyran-4-yl)-1,3-dimethyl-3-phenylurea], the IC50 with TNF-α and in the assay on IL-6 was 41 µM in each case. For the same compound, the “IL-1β OS of LPS” value with IL-1β was 81 µM. In addition, the MIC in assay [1] is above 64 µg/mL.
In the case of `CC[C@H]1OC(=O)[C@H](C)[C@@H](O[C@H]2C[C@@](C)(OC)[C@](O)(CNc3ccccc3)[C@H](C)O2)[C@H](C)[C@@H](O[C@@H]2O[C@H](C)C[C@H](N(C)C(=O)N(C)c3ccccc3)[C@H]2O)[C@](C)(O)C[C@@H](C)CN[C@H](C)[C@@H](O)[C@]1(C)O` [Example H-32, 1-((2S,3R,4S,6R)-2-(((2R,3S,4R,5R,8R,10R,11R,12S,13S,14R)-2-ethyl-3,4,10-trihydroxy-13-(((2R,4R,5S,6S)-5-hydroxy-4-methoxy-4,6-dimethyl-5-((phenylamino)methyl)tetrahydro-2H-pyran-2-yl)oxy)-3,5,8,10,12,14-hexamethyl-15-oxo-1-oxa-6-azacyclopentadecan-11-yl)oxy)-3-hydroxy-6-methyltetrahydro-2H-pyran-4-yl)-1,3-dimethyl-3-phenylurea], the IC50 worked out at 11 µM in the assay on TNF-α and 8 µM in the assay with IL-6. For the same compound, the “IL-1β OS of LPS” value in the assay with IL-1β came out at 44 µM. In assay [1], the MIC was above 64 µg/mL.
The corresponding values for `CC[C@H]1OC(=O)[C@H](C)[C@@H](O[C@H]2C[C@@](C)(OC)[C@](O)(CNCCC3CCOCC3)[C@H](C)O2)[C@H](C)[C@@H](O[C@@H]2O[C@H](C)C[C@H](N(C)C(=O)N(C)c3ccccc3)[C@H]2O)[C@](C)(O)C[C@@H](C)CN[C@H](C)[C@@H](O)[C@]1(C)O` [Example H-33, 1-((2S,3R,4S,6R)-2-(((2R,3S,4R,5R,8R,10R,11R,12S,13S,14R)-2-ethyl-3,4,10-trihydroxy-13-(((2R,4R,5S,6S)-5-hydroxy-4-methoxy-4,6-dimethyl-5-(((2-(tetrahydro-2H-pyran-4-yl)ethyl)amino)methyl)tetrahydro-2H-pyran-2-yl)oxy)-3,5,8,10,12,14-hexamethyl-15-oxo-1-oxa-6-azacyclopentadecan-11-yl)oxy)-3-hydroxy-6-methyltetrahydro-2H-pyran-4-yl)-1,3-dimethyl-3-phenylurea] are 37 µM, 57 µM, 6 µM and above 64 µg/mL.
The corresponding values for `CC[C@H]1OC(=O)[C@H](C)[C@@H](O[C@H]2C[C@@](C)(OC)[C@](O)(CN(C)C3CCC3)[C@H](C)O2)[C@H](C)[C@@H](O[C@@H]2O[C@H](C)C[C@H](N(C)C(=O)N(C)c3ccccc3)[C@H]2O)[C@](C)(O)C[C@@H](C)CN[C@H](C)[C@@H](O)[C@]1(C)O` [Example H-37, 1-((2S,3R,4S,6R)-2-(((2R,3S,4R,5R,8R,10R,11R,12S,13S,14R)-13-(((2R,4R,5S,6S)-5-((cyclobutyl(methyl)amino)methyl)-5-hydroxy-4-methoxy-4,6-dimethyltetrahydro-2H-pyran-2-yl)oxy)-2-ethyl-3,4,10-trihydroxy-3,5,8,10,12,14-hexamethyl-15-oxo-1-oxa-6-azacyclopentadecan-11-yl)oxy)-3-hydroxy-6-methyltetrahydro-2H-pyran-4-yl)-1,3-dimethyl-3-phenylurea] are 8 µM, 12 µM, 40 µM and above 64 µg/mL.
As for `CC[C@H]1OC(=O)[C@H](C)[C@@H](O[C@H]2C[C@@](C)(OC)[C@](O)(CNCCS(=O)(=O)c3ccccc3)[C@H](C)O2)[C@H](C)[C@@H](O[C@@H]2O[C@H](C)C[C@H](N(C)C(=O)N(C)c3ccccc3)[C@H]2O)[C@](C)(O)C[C@@H](C)CN[C@H](C)[C@@H](O)[C@]1(C)O` [Example H-43, 1-((2S,3R,4S,6R)-2-(((2R,3S,4R,5R,8R,10R,11R,12S,13S,14R)-2-ethyl-3,4,10-trihydroxy-13-(((2R,4R,5S,6S)-5-hydroxy-4-methoxy-4,6-dimethyl-5-(((2-(phenylsulfonyl)ethyl)amino)methyl)tetrahydro-2H-pyran-2-yl)oxy)-3,5,8,10,12,14-hexamethyl-15-oxo-1-oxa-6-azacyclopentadecan-11-yl)oxy)-3-hydroxy-6-methyltetrahydro-2H-pyran-4-yl)-1,3-dimethyl-3-phenylurea], the IC50 in the assay with TNF-α was 34 µM; in the assay with IL-6, 29 µM. For the same compound, in the assay on IL-1β, the “IL-1β OS of LPS” value is 16 µM. Moreover, the MIC in assay [1] is above 64 µg/mL.
